Laboratory results published in a melting point compilation (Tetko et al.; mined from patent text by program, amines drawn as free bases though some values may be those of a salt).

SMILES	melting point [°C]
COc1cc(N(C)C(=O)CN2CCN(C)CC2)ccc1N	115 to 118
COC1(OC)C=Cc2cc(Cc3cnc(N)nc3N)cc(OCC3CC3)c2O1	204 to 206
CCOC(=O)NCCc1cc2ccccc2s1	65 to 66
CCC1(c2ccnc(OC)c2CO)OCCCO1	79
COc1cc(CN2CCN(c3ccc(C(=O)NC4CC4)cc3F)CC2)cc2c1OC(C)C(=O)N2 (stereo not given)	233
COc1ccc(CCN(C)CCOc2ccc(NC(=O)c3cccc4c(=O)c5cc(F)ccc5sc34)cc2)cc1OC	145
CC(C)CC(N)S(=O)(=O)O (stereo not given)	142 to 144
C=C1CC(C)(O)CCC2=C(C)CCC12 (stereo not given)	54
O=Cc1ccc2[nH]cc(CCCCN3CC=C(c4ccccc4)CC3)c2c1	131
CCNC(=O)c1cc(C(=O)O)cc(C(=O)NCC)n1	278 to 280
Cc1cc(O)ccc1-c1cnc2[nH]c(=O)n(CC3CCCCC3)c2n1	212 to 214
CCOC(=O)c1sc(-c2ccc(C#N)cc2)nc1COC(C)=O	127
CC(C)(C)C(O)C(Oc1ccccc1)n1ccnc1 (stereo not given)	99 to 105
COC(=O)/C=C/c1ccc(NC(C)=O)nc1	172 to 200
CNCc1cnc(Nc2n[nH]c3ccc(-c4ncccc4Cl)cc23)s1	200 to 201
COP(=O)(Cc1nc2cc3c(cc2nc1C(=O)OC(C)(C)C)OC(C)(C)O3)OC	86.3 to 87.9
Cc1ccc(S(=O)(=O)OCC2CN(C)c3ccc(Cl)cc3O2)cc1 (stereo not given)	65 to 67
CCOC(=O)c1cnn(-c2ncc(Cl)cc2Cl)c1N	98 to 101
CC(C)(C)OC(=O)NCC(=O)N1CCC(=C2c3ccc(Cl)cc3CCc3cccnc32)CC1	209 to 211
Cn1nnnc1-c1cn(C)c2cc(F)ccc2c1=O	264 to 267
CC1(C)CCSc2cc(-c3cc(-c4ccc(C(=O)O)cc4)ccc3-c3ccccc3)ccc21	180
CN1CCCC1=C(C#N)c1ccc(N)cc1	116 to 118
Cc1ccc(S(=O)(=O)NCCOS(=O)(=O)c2ccc(C)cc2)cc1	89 to 90
O=C(O)C1CCc2c(oc3cccc(Cl)c23)C1 (stereo not given)	189 to 190
COc1cc([N+](=O)[O-])c(N)cc1C(N)=O	250 to 257
Cc1cc([N+](=O)[O-])c(C)nc1O	263

SMILES	melting point [°C]
CC(C)c1ccccc1N1C(=O)CON(C)C1=S	98 to 101
CCCc1cc(Cl)c(O)c2c(C)c(Cc3ccc(OC)cc3)oc12	99 to 100
COc1c(N2CC[C@@H](C(C)(C)N)C2)c(F)cc2c(=O)c(C(=O)O)cn(C3CC3)c12	225 to 227
CCN1C(C)=CC(=O)CS1(=O)=O	90 to 92
CC1(C)Oc2cc3nonc3cc2C(N2CCC(=O)CC2=O)C1O (stereo not given)	220 to 223
COC(=O)c1ccc(CC(=O)c2ccc3c(c2)C(C)(C)CCC3(C)C)cc1	103 to 104
OCc1nccc(N2CCCCC2)n1	92 to 93
OC1CCc2c(Br)cccc21 (single isomer, unassigned; (-))	81
CCC(C)(C)n1nnnc1S	104 to 106
COC(=O)c1c(SC(C)C)c2cc(OC)ccc2n1C	93 to 95
Cn1nc(C(F)(F)F)cc1Oc1cc(C#N)cc(-c2cc(C(F)(F)F)nn2C)n1	164 to 165
ClC(Cl)(Cl)c1nc2ncccc2[nH]1	210
COc1cc2ncc(C#N)c(Sc3cccc(Br)c3)c2cc1OC	173 to 175
Cn1cnc2c(ccc3[nH]cc(CCN)c32)c1=O	279 to 285
NC(=O)c1ccn2c1CSC2	186
Cc1cc(OCCN2CCCCC2)ccc1NC(=O)NC1C2CC3CC(C2)CC1C3 (stereo not given)	196
CN(C)CCC1CCC2(CC1)Nc1ccc(Cl)cc1S(=O)(=O)N2 (stereo not given)	234 to 235
CC(C)(C)COCCOc1ccc(OCC(O)CNCCNC(=O)N2CCOCC2)cc1 (stereo not given)	90
COc1cc2cn(CC(O)CO)nc2cc1OC (stereo not given)	113 to 115
CCOC(=O)CCc1cc([N+](=O)[O-])ccc1O	199 to 200
CC(CNC(=O)Cc1ccccc1)NCC(O)c1ccccc1 (stereo not given)	96 to 98
CCOC(=O)CC1CC2C(CCC3(C)C(=O)CCC23)c2ccc(O)cc21 (stereo not given)	138
CC(=O)NC(=S)N1CCSC1c1ccccc1OCCN1CC=C(c2cccc(F)c2)CC1 (stereo not given)	135 to 136
COc1cc2c(cc1C#N)[C@@H](O)[C@H](Br)C(C)(C)O2 (relative stereo)	144 to 146
CCCCNC(=S)NS(=O)(=O)c1cc2c(cc1OC)OCCC2CNC(=O)c1cc(Cl)ccc1OC (stereo not given)	167

More lines, now with the values ahead:

melting point [°C]	SMILES
57 to 62	CC(=O)N(Cc1ccccc1)CC(CCN1CCC(O)(c2ccccc2)CC1)c1ccc(Cl)c(Cl)c1 (stereo not given)
189 to 191	COc1ccc(S(=O)(=O)N2Cc3ccccc3N(C(=O)c3ccc(-n4ccc(C)n4)cc3Cl)CC2C(=O)NO)cc1 (stereo not given)
237	CCCOC(=O)C1=C(N)NC(C)=C(C#N)C1c1cccc2ncc(-c3ccccc3)cc12 (stereo not given)
127 to 129	COc1cc([N+](=O)[O-])ccc1S(=O)(=O)Nc1ccccc1C
288 to 289	O=c1[nH]c(=Cc2cccs2)c(=O)[nH]c1=Cc1ccc2ccccc2n1
198 to 205	NC(=O)C1CCN(Cc2ccc(-c3cc4ncnc(Nc5ccc6[nH]ccc6c5)c4s3)cc2)CC1
81 to 83	CN(C(=O)c1cccc(C(F)(F)F)c1)c1ccccc1CCCCC(=O)O
164 to 166	O=C1NCCN1c1ccc(S(=O)(=O)Nc2ccc3c(c2)Cc2ccccc2-3)cc1
178 to 185	CS(=O)c1ccc2c3c(cccc13)C(=O)N2 (stereo not given)
178 to 179	O=C(Nc1cccnc1)N1CCN(c2cc(-c3ccccc3F)ncn2)CC1
108 to 109	CC1=C(Cc2cccc(Br)c2)C(=O)C2C=CC=CC2C1=O (stereo not given)
283 to 285	CC1=C(c2ccc(Cl)cc2)n2ncc3c(=O)[nH]c(=S)n(c32)C1
124 to 126	Cc1nc(Cl)c(-c2ccc(F)cc2)n1-c1ccc(Cl)cc1
71 to 73	Nc1ccc(F)c(-c2ccccn2)c1F
185 to 186	C[C@@H](n1cnc2cc(Br)c(F)cc2c1=O)[C@](O)(Cn1cncn1)c1ccc(F)cc1F
137 to 139	CCOC(=O)Cc1ccc(NC(=O)Nc2ccccc2C(F)(F)F)cc1
194 to 197	Cc1ccc(S(=O)(=O)NC(=O)Nc2ccc(C(F)(F)F)cc2)cc1
200 to 203	Cc1[nH]c(Cl)c(C)c1-c1ccnc(Nc2ccc(F)cc2)n1
98 to 102	OC(Cc1cnc(-c2c(F)cccc2F)nn1)c1ccc(Cl)cc1 (stereo not given)
169 to 171	COC(=O)C(=C/c1c(OC)cc(OC)cc1OC)/C(=C\c1ccccc1)C(N)=O
179 to 180	CCC(C)(CC(=O)Nc1cccc(OCc2ccc3ccc(F)cc3n2)c1)C(=O)O (stereo not given)
106	N#Cc1ccc(C#N)c(Sc2ccccc2)c1
201 to 202	Cn1ncc(/C=C/C(=O)Nc2ccc(CN)cc2)c1-c1ccc(F)cc1
183 to 184	NC(=O)CNC(=O)c1cccc(-c2ccnc3cc(Cc4cccc(C(F)(F)F)c4)sc23)c1
208	Cc1ccn2c(-c3ccnc(-c4ccc(N5CCOCC5)cc4)c3)c(-c3cccc(C)n3)nc2c1

melting point [°C]	SMILES
79 to 81	CC(C(=O)NCc1ccc(C(C)(C)C)cc1)c1ccc(NS(C)(=O)=O)c(C(=O)NCc2ccccc2)c1 (stereo not given)
244 to 246	CCCc1nc2c(N)nc3ccc(-c4cccc(NS(C)(=O)=O)c4)cc3c2s1
157 to 158	CC(C)n1nc(-c2sc(C(=O)NC3CC3)nc2-c2ccc(F)cc2)ccc1=O
100 to 101	O=S(=O)(CCCCl)Nc1ccccc1OCc1ccc2ccccc2n1
106 to 107	O=C(O)CCc1cn(Cc2ccc(OCc3csc(-c4cccs4)n3)cc2)cc1-c1ccccc1
123 to 125	O=C(CCc1ccc2ccccc2c1)CC(=O)CCc1ccc2ccccc2c1
118 to 120	O=C(NCCCc1ccc(CO)cc1)c1ccc(-c2ccccn2)cc1
130 to 131	CCOC(=O)C(C)(C(=O)OCC)c1cc(=O)n(Cc2ccccc2)c2ccccc12
54	COC(=O)CN(C)c1cccc(-c2ccc(Cl)cc2)n1
149 to 151	COc1ccc2c(c1OC)C(=O)c1c-2c(Cl)nc2ccc(Cl)cc12
118 to 119	O=C(O)CCc1cn(Cc2ccc(OCc3ccsc3)cc2)cc1-c1ccccc1
134 to 135	COC(=O)c1ccc(-c2nn(Cc3ccccc3)c3ccc([N+](=O)[O-])cc23)o1
192 to 195	CCOC(=O)[C@H](Cc1ccc(Nc2nccc3ccncc23)cc1)NC1=C(Br)C(=O)C12CCCCC2
81 to 82	Cc1ccc(S(=O)(=O)OCC2Cc3cccc(-c4cccc(C)c4)c3O2)cc1 (stereo not given)
308 to 310	Cc1cc(-c2ccc(Cl)cc2)nc2c(C(=O)Nc3cccc(S(N)(=O)=O)c3)cnn12
178 to 180	COc1ccc2c(c1)CN(Cc1c[nH]c3ccccc13)C2
127 to 128	Cc1nc2ccc(NS(=O)(=O)c3cccc(Cl)c3C)cc2o1
237 to 239	CCOc1ccc(-c2ccc3c(c2)C=C(C(=O)O)CCN3S(C)(=O)=O)cc1F
178 to 180	CN1[C@@H](c2ccc(O)cc2)c2ccccc2S1(=O)=O
186 to 188	O=C(O)COc1cccc2c1CCc1sc(S(=O)(=O)C(c3ccc(F)cc3)c3ccc(F)cc3)nc1-2
147	CCOC(=O)c1cnc2c(C)cc(-c3ccc(Cl)cc3)cn12
244 to 247	Cn1cc(C2=C(c3c4n(c5ccccc35)CCN(C(=S)n3ccnc3)C4)C(=O)NC2=O)c2ccccc21
136 to 140	COc1ccc(C(=O)Cn2c(-n3ccc(N)n3)nc3ccccc32)cc1
195 to 197	COc1cc(C(=O)c2[nH]c3ccccc3c2C)cc([N+](=O)[O-])c1O
